Reference: patent USRE39030E1 (Eli Lilly and Company, priority 1997, dated 2006)
Where a name gives a salt, the structure may show the parent alone.

Experiments:
[1] = 60 mg once per week vs 20 mg per day; maintenance therapy after eight weeks of daily dosing; cited from earlier work
[2] = interaction of fluoxetine with lactose (reducing sugar) over time; format: physicochemical; settings: room temperature and accelerated stability conditions (heat)
Excerpt: When used in this description, the term “sugar” refers to a sugar other than a reducing sugar. A reducing sugar is a carbohydrate that reduces Fehling's (or Benedict's) or Tollens' reagent. All monosaccharides are reducing sugars as are most disaccharides with the exception of sucrose. One common sugar used frequently as a binding or filling agent is lactose. […] As discussed below, sucrose is a preferred sugar.

[3] = 120 mg dosed biweekly; cited from earlier work

SMILES: CNCCC(Oc1ccc(C(F)(F)F)cc1)c1ccccc1 (stereo not drawn) [fluoxetine hydrochloride]
- effectiveness during maintenance therapy [1]: as effective as 20 mg per day

SMILES: CNCCC(Oc1ccc(C(F)(F)F)cc1)c1ccccc1 (stereo not drawn) [fluoxetine, N-methyl-3-(p-trifluoromethylphenoxy)-3-phenylpropylamine]
- interaction with lactose [2]: interacts with lactose both at room temperature and under accelerated stability conditions (heat)
- effectiveness for treating recurrent brief depression [3]: ineffective
